We go through 2 compounds from patent publication US20020192231A1, “Method of increasing anti-neuGc antibody levels in blood” (Immucom Inc., priority 2001, published 2002).

For assay [1], the system named is human anti-nonαGal (anti-NeuGc). Nature of the assay: Inhibition of human anti-nonαGal binding to pRBC by sialic acids, flow cytometry. To be noted: for effect on antibody binding to pRBC: antibodies preincubated with 10 mM sialic acid. As for the experimental part: FIG. 1. Flow cytometry analysis of human anti-nonαGal. The antibodies were incubated with pRBC (type O) at room temperature for 30 min. Anti-human IgG (H+L) conjugated with R-phycoerythrin (PE) was used as a second antibody. (A) The antibodies were bound to untreated (peak 1) or sialidase-treated (peak 2) pRBC. In an inhibition assay, the antibodies were preincubated with NeuAc (peak 3) or NeuGc (peak 4) prior to binding with untreated pRBC. Cells plus the secondary antibody (peak 5) was used as background controls for the flow cytometry. (B) The antibodies were pre-incubated with increasing concentrations of NeuGc (●) or NeuAc (∘) prior to flow cytometry analysis. The percentage of binding (% MFI) was plotted against sialic acid concentrations. Human anti-nonαGal was prepared by depleting anti-αGal from the total xenoreactive antibodies in the serum (31). […] On the other hand, pre-treatment of fresh pRBC with a number of other exoglycosidases (β-galactosidase, α-N-acetylgalactosaminidase and hexosaminidase) had no effect on antibody binding (data not shown). To elucidate the nature of antigens recognized by anti-nonαGal, the antibodies were preincubated with 10 mM NeuGc or NeuAc prior to the binding with pRBC.

A further assay deals with chicken anti-NeuGc. The assay is described as follows: Inhibition of purified chicken anti-NeuGc binding to pRBC, flow cytometry. To be noted: at 9.5 mM of NeuGc. As for the experimental part: (§1) FIG. 5. Selective inhibition of chicken anti-NeuGc and anti-gangliosides. (A) Prior to flow cytometry analysis, both antibodies were pre-incubated with increased amount of NeuGc. (B) Both antibodies were pre-incubated with increasing amount of porcine gangliosides. To further purify chicken antibodies that bind to the thyroglobulin column, we eluted the column with PBS containing NeuGc, followed by glycine-HCI, pH 2.5. The two resultant fractions are designated as anti-NeuGc and anti-gangliosides, respectively, based on detailed characterization of their binding specificities as described below. Quantitatively, there are roughly ten times more anti-NeuGc than anti-gangliosides activity in the chicken antibodies based on flow cytometry analysis (assuming there are the same amounts of binding sites for both antibodies on pRBC). Both of antibody fractions, anti-NeuGc and anti-gangliosides, derived from further purification of the post-immune IgY bind to pRBC in flow cytometry.

The subject of a further assay is post-immune IgY. Nature of the assay: Inhibition of chicken post-immune IgY binding to pRBC, flow cytometry. To be noted: pre-incubation with 3.75 mM NeuGc. As for the experimental part: FIG. 3. Flow cytometry analysis of chicken antibody raised against porcine gangliosides. The antibody sample was incubated with α-galactosidase pRBC (type O) at room temperature for 0.5 hour. Anti-chicken IgG (H+L) conjugated with FITC was used as a second antibody. Cells alone or cells plus the secondary antibody (1) were used as a background control for the flow cytometry (Becton Dickinson). Chicken antibodies (0.1 ul each) prepared from pre-immune eggs (2) and post-immune eggs (3) were analyzed by flow cytometry analysis. Post-immune antibodies were pre-incubated with 3.75 mM NeuGc (4) or 3.75 mg/ml porcine gangliosides (5) prior to the analysis. To examine the effect of ganglioside immunization and level of induced antibodies in eggs, IgY prepared from pre-immune eggs and post-immune eggs were analyzed by flow cytometry analysis using α-galactosidase-treated pRBC. […] We are collecting 20-25 eggs per hen per month.
A general note: Flow cytometry measures light scatter and fluorescence of single cells or particles in a stream.

Assay [2] deals with chicken anti-gangliosides. Nature of the assay: Inhibition of purified chicken anti-gangliosides binding to pRBC, flow cytometry. To be noted: pre-incubation with NeuGc. As for the experimental part: as §1
The test system of assay [3] is breast cancer cell line MCF-7. Nature of the assay: ECL fluorescence immunoassay on fixed MCF-7 cells. The class given is cell-based. To be noted: 30 mM NeuGc. As for the experimental part: More recently, we have succeeded in detecting NeuGc antigen in breast cancer cell line MCF-7 using purified chicken anti-NeuGc antibody. Cells are seeded in chambered slides under cell culture conditions. After growing upto 80%-90% confluence (approximately 2-3 days), cells are gently washed with PBS, pH 7.2, and then fixed in 300 ul methanol for 5 min at room temperature. The chambered slides are blocked with PBS containing 2% BSA prior to the incubation with purified chicken anti-NeuGc in a ECL fluorescence immunoassay. […] Its binding specificity was confirmed by inhibition with 30 mM NeuGc.

`CC(=O)N[C@H]1[C@H]([C@H](O)[C@H](O)CO)OC(O)(C(=O)O)C[C@@H]1O` (stereo partly shown) [NeuAc, N-acetylneuraminic acid]: in assay [1] (NeuAc as high as 6 mM), the “inhibition of antibody binding” value is reported as “essentially no inhibition”. Also, in assay [1], the “effect on antibody binding to pRBC” value was “no effect”.
`O=C(CO)N[C@H]1[C@H]([C@H](O)[C@H](O)CO)OC(O)(C(=O)O)C[C@@H]1O` (stereo partly shown) [NeuGc, N-glycolylneuraminic acid]: the “inhibition of anti-NeuGc binding” value in the assay with chicken anti-NeuGc is listed as “more than 95%”. Moreover, the “inhibition of binding activity” value in the assay with post-immune IgY is reported as “partially inhibited”. For the same compound, the “inhibition of human anti-NeuGc activity by pre-incubation” value in assay [1] (anti-NeuGc purified from normal human sera) is reported as “specifically inhibited”. The “effect on antibody binding to pRBC” value in assay [1] is “strong inhibitory effect”. The “inhibition of antibody binding” value in assay [1] (at 1.2 mM of NeuGc) is on record as “Ninety”. Moreover, the IC50 in assay [1] (based on mean fluorescent intensity (MFI), read-out: I50 value (concentration that gives rise to 50% inhibition)) is approximately 73 µM. In addition, in assay [2], the “maximal inhibition of anti-gangliosides binding” value is “approximately 30%”. Besides, the “inhibition of anti-NeuGc binding to MCF-7 cells” value in assay [3] was “inhibition”.
